In US20180110754A1, “CENICRIVIROC FOR THE TREATMENT OF FIBROSIS” (Tobira Therapeutics, Inc., priority 2015, published 2018):

Experiments:
[1] = target: CCR4 (Homo sapiens, UniProt P51679); test: Inhibition of ligand binding to CCR4
[2] = test system: mouse monocytes; test: CCL2-induced chemotaxis ex vivo on mouse monocytes; format: cell-based
Procedure: Monocyte/macrophage recruitment was assessed in vivo in a mouse model of thioglycollate-induced peritonitis. CCL2-induced chemotaxis was evaluated ex vivo on mouse monocytes. […] Study assessments included body and liver/kidney weight, liver function test, liver/kidney morphology and collagen deposition, fibrogenic gene and protein expression, and pharmacokinetic analyses.

CCR4, sequence (P51679 whole entry): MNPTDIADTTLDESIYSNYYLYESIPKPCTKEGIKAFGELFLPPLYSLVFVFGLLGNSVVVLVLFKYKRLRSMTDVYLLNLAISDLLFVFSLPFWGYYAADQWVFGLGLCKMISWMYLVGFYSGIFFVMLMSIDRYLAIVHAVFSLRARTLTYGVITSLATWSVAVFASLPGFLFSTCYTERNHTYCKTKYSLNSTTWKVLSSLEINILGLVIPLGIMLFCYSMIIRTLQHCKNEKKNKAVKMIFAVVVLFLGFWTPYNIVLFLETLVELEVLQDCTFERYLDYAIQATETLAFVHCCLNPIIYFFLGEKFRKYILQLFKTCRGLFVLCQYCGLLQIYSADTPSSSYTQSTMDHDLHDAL

Q: What does the source list for `CCCCOCCOc1ccc(-c2ccc3c(c2)/C=C(/C(=O)Nc2ccc([S@@+]([O-])Cc4cncn4CCC)cc2)CCCN3CC(C)C)cc1` [CVC, (S)-8-[4-(2-Butoxyethoxy)phenyl]-1-isobutyl-N-(4-{[(1-propyl-1H-imidazol-5-yl)methyl]sulfinyl}phenyl)-1,2,3,4-tetrahydro-1-benzazocine-5-carboxamide]?
A: Inhibition of ligand binding to CCR4 [1]: only weakly inhibited; Monocyte migration ex vivo (CCL2-induced chemotaxis) [2]: reduced
